# System: tau protein
# Experiment: Tau protein in vitro degradation assay (Western blot, Tau-13 antibody)
# Assay type: cell-based, human
# Details: SK-N-SH cells; 72 hours of incubation; tested at 300 nM, 100 nM, 33 nM and 11 nM; Western blot, Tau-13 antibody
# How it was run: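 SK-N-SH cells, seeded ≥18 h beforehand, were incubated 72 h with tau PROTACs at 1000, 300 and 100 nM or at 300, 100, 33 and 11 nM. Lysates in protease-inhibitor buffer were resolved by SDS-PAGE; tau quantified by Western blot with Tau-13 antibody recognising all human tau forms.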
row,Structure (SMILES),Degradation activity (tau protein remaining; highest amount of degradation observed at any dosage)
1,"Cn1c2ccncc2c2ccc(-c3ccc(O[C@H]4C[C@H](OCC56CC(COCCOCCOc7ccc8c(c7)C(=O)N(C7CCC(=O)NC7=O)C8=O)(C5)C6)C4)nc3)cc21 (some centres unmarked) [Compound 209, 2-(2,6-dioxopiperidin-3-yl)-5-(2-(2-((3-(((1r,3r)-3-((5-(5-methyl-5H-pyrido[4,3-b]indol-7-yl)pyridin-2-yl)oxy)cyclobutoxy)methyl)bicyclo[1.1.1]pentan-1-yl)methoxy)ethoxy)ethoxy)isoindoline-1,3-dione]",A (≤50% tau protein remaining after 72 hours of incubation with the test compound)
2,"Cn1c2ccncc2c2ccc(N3CCN(CCCOCCOCCOCCOCCOc4ccc5c(c4)C(=O)N(C4CCC(=O)NC4=O)C5=O)CC3)cc21 (centres unmarked) [Compound 210, 2-(2,6-dioxopiperidin-3-yl)-5-((15-(4-(5-methyl-5H-pyrido[4,3-b]indol-7-yl)piperazin-1-yl)-3,6,9,12-tetraoxapentadecyl)oxy)isoindoline-1,3-dione]",C (>80% tau protein remaining after 72 hours of incubation with the test compound)
3,"Cn1c2ccncc2c2ccc(-c3ccc(OC4CC5(C4)CN(CCOCCCOC4CN(c6ccc7c(c6)C(=O)N(C6CCC(=O)NC6=O)C7=O)C4)C5)nc3)cc21 (centres unmarked) [Compound 211, 2-(2,6-dioxopiperidin-3-yl)-5-(3-(3-(2-(6-((5-(5-methyl-5H-pyrido[4,3-b]indol-7-yl)pyridin-2-yl)oxy)-2-azaspiro[3.3]heptan-2-yl)ethoxy)propoxy)azetidin-1-yl)isoindoline-1,3-dione]",C (>80% tau protein remaining after 72 hours of incubation with the test compound)
4,"Cn1c2ccncc2c2ccc(-c3ccc(O[C@H]4C[C@H](OCC#CCOCCOC5CN(c6ccc7c(c6)C(=O)N(C6CCC(=O)NC6=O)C7=O)C5)C4)nc3)cc21 (some centres unmarked) [Compound 212, 2-(2,6-dioxopiperidin-3-yl)-5-(3-(2-((4-((1r,3r)-3-((5-(5-methyl-5H-pyrido[4,3-b]indol-7-yl)pyridin-2-yl)oxy)cyclobutoxy)but-2-yn-1-yl)oxy)ethoxy)azetidin-1-yl)isoindoline-1,3-dione]",A (≤50% tau protein remaining after 72 hours of incubation with the test compound)
5,"Cn1c2ccncc2c2ccc(-c3ccc(O[C@H]4C[C@H](OCCOCCOC5CC6(C5)CN(c5ccc7c(c5)C(=O)N(C5CCC(=O)NC5=O)C7=O)C6)C4)nc3)cc21 (some centres unmarked) [Compound 213, 2-(2,6-dioxopiperidin-3-yl)-5-(6-(2-(2-((1r,3r)-3-((5-(5-methyl-5H-pyrido[4,3-b]indol-7-yl)pyridin-2-yl)oxy)cyclobutoxy)ethoxy)ethoxy)-2-azaspiro[3.3]heptan-2-yl)isoindoline-1,3-dione]",C (>80% tau protein remaining after 72 hours of incubation with the test compound)
